Counter-ions that a name gives are not always drawn.
What follows are compounds tested against ROCK2 (Homo sapiens, UniProt O75116) (assay: ROCK2 kinase inhibition assay (Caliper LABCHIP, FITC peptide substrate)). Conditions: 5 μM ATP, 1.5 μM peptide substrate; value ranges.
Type: biochemical
Description: The effectiveness of compounds of the present invention as ROCK inhibitors can be determined in a 30 μL assay containing 20 mM HEPES, pH 7.5, 20 mM MgCl2, 0.015% Brij-35, 4 mM DTT, 5 μM ATP and 1.5 μM peptide substrate (FITC-AHA-AKRRRLSSLRA-OH). Compounds were dissolved in DMSO so that the final concentration of DMSO was <2%, and the reaction was initiated with Rho kinase variants. After incubation, the reaction was terminated by the addition of EDTA and the phosphorylated and non-phosphorylated peptides separated using a LABCHIP® 3000 Reader (Caliper Life Sciences). […] Compounds were tested in dose-response format, and the inhibition of kinase activity was calculated at each concentration of compound. The inhibition data were fit using a curve-fitting program to determine the IC50; i.e., the concentration of compound required to inhibit 50% of kinase activity.
Representative Examples were tested in the ROCK2 assay described above and found having ROCK inhibitory activity.

Sequence of ROCK2 (O75116 whole entry, species assumed): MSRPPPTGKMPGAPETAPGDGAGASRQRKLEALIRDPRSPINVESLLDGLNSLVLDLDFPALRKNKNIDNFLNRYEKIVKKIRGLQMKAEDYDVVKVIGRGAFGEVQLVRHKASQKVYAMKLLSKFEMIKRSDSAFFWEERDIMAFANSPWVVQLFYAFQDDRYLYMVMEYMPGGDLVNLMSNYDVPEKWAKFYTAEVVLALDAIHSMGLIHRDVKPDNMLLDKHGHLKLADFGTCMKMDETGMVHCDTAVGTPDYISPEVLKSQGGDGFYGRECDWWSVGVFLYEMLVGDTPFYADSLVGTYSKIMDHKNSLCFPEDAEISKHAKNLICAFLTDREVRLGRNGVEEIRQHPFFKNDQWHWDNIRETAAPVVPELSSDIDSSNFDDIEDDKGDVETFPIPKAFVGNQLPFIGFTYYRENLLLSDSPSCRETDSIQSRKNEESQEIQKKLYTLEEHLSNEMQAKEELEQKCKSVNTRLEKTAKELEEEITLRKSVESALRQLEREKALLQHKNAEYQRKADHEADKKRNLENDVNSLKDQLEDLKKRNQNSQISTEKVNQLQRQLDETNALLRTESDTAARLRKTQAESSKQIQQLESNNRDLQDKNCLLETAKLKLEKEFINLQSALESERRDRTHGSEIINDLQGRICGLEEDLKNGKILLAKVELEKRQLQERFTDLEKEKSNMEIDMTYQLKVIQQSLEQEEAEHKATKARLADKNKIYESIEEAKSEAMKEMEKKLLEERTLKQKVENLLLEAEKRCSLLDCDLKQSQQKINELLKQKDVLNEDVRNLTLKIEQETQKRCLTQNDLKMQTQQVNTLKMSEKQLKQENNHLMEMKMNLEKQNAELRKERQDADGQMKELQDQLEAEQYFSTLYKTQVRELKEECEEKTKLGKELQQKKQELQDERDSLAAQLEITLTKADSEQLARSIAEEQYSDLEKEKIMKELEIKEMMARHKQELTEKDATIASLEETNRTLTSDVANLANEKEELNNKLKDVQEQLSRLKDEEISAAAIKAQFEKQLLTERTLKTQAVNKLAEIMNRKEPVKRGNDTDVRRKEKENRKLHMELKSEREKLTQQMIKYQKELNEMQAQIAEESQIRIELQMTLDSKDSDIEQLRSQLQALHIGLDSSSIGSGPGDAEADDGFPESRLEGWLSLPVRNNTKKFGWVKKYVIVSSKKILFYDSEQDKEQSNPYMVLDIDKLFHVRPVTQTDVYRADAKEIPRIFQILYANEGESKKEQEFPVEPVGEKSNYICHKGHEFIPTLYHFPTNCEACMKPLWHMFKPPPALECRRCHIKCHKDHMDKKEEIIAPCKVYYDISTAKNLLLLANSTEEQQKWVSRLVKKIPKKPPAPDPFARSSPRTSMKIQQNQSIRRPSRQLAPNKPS

SMILES	IC50
COc1ccc(F)c(CN2CCN(c3ccc(-c4cn[nH]c4)c(OC)c3)C2=O)c1 [Example 15, 1-(2-Fluoro-5-methoxybenzyl)-3-(3-methoxy-4-(1H-pyrazol-4-yl)phenyl)imidazolidin-2-one]	20.1 to 200 nM
COc1ccc(CN2C(=O)N(c3ccc(-c4cn[nH]c4)cc3)CC2(C)C)cc1F [Example 139, 1-(4-(1H-pyrazol-4-yl)phenyl)-3-(3-fluoro-4-methoxy-benzyl)-4,4-dimethyl-imidazolidin-2-one]	200 to 2000 nM
COc1nc(N2CCN(Cc3cc(F)ccc3C)C2=O)ccc1-c1cn[nH]c1 [Example 250, 1-(5-fluoro-2-methylbenzyl)-3-(6-methoxy-5-(1H-pyrazol-4-yl)pyridin-2-yl)imidazolidin-2-one]	2.1 to 20 nM
COc1cc(F)cc(CN2CCN(c3ccc(-c4cn[nH]c4)cc3)C2=O)c1 [Example 118, 1-(4-(1H-pyrazol-4-yl)phenyl)-3-(3-fluoro-5-methoxybenzyl)imidazolidin-2-one]	< 2 nM
O=C1N(Cc2ccccc2)CCN1c1ccc(-c2ccncc2)cc1 [Example 55, 1-benzyl-3-(4-(pyridin-4-yl)phenyl)imidazolidin-2-one, TFA]	20.1 to 200 nM
O=C(O)C1CN(Cc2cccc(F)c2)C(=O)N1c1ccc(-c2cn[nH]c2)cc1 (stereo not shown) [Example 33, 3-(4-(1H-Pyrazol-4-yl)phenyl)-1-(3-fluorobenzyl)-2-oxoimidazolidine-4-carboxylic Acid]	200 to 2000 nM
COc1cccc(CN2C(=O)N(c3ccc(-c4cn[nH]c4)cc3)C(=O)C2CO)c1 (stereo not shown) [Example 121, 3-(4-(1H-Pyrazol-4-yl)phenyl)-5-(hydroxymethyl)-1-(3-methoxybenzyl)imidazolidine-2,4-dione]	200 to 2000 nM
COc1cc(F)cc(CN2CCN(c3ccc(-c4cn[nH]c4)c(C(F)(F)F)c3)C2=O)c1 [Example 276, 1-(4-(1H-pyrazol-4-yl)-3-(trifluoromethyl)phenyl)-3-(3-fluoro-5-methoxybenzyl)imidazolidin-2-one]	20.1 to 200 nM
COc1cc(F)cc(C(C)N2CCN(c3ccc(-c4cn[nH]c4)c(C)n3)C2=O)c1 (single isomer, unassigned) [Example 207, 1-(1-(3-fluoro-5-methoxyphenyl)ethyl)-3-(6-methyl-5-(1H-pyrazol-4-yl)pyridin-2-yl)imidazolidin-2-one]	200 to 2000 nM
COc1cc(CN2CCN(c3ccc(-c4cn[nH]c4)c(C#N)c3)C2=O)ccc1F [Example 279, 5-(3-(4-fluoro-3-methoxybenzyl)-2-oxoimidazolidin-1-yl)-2-(1H-pyrazol-4-yl)benzonitrile]	200 to 2000 nM
O=C1N(Cc2cccc(F)c2)CCN1c1ccc(-c2cn[nH]c2)cc1 [Example 4, 1-(4-(1H-pyrazol-4-yl)phenyl)-3-(3-fluorobenzyl)imidazolidin-2-one]	2.1 to 20 nM
COc1cccc(CN2C(=O)CN(c3ccc(-c4cn[nH]c4)cc3)C2=O)c1 [Example 112, 1-(4-(1H-pyrazol-4-yl)phenyl)-3-(3-methoxybenzyl) imidazolidine-2,4-dione]	< 2 nM
O=c1n(Cc2ccc(F)cc2)ccn1-c1ccc(-c2cn[nH]c2)cc1 [Example 67, 1-(4-(1H-pyrazol-4-yl)phenyl)-3-(4-fluorobenzyl)-1H-imidazol-2(3H)-one]	20.1 to 200 nM
CCc1cc(N2CCN(C(CO)c3cccc(OC)c3)C2=O)ccc1-c1cn[nH]c1 (single isomer, unassigned) [Example 166, 1-(3-ethyl-4-(1H-pyrazol-4-yl)phenyl)-3-(2-hydroxy-1-(3-methoxy-phenyl)ethyl) imidazolidin-2-one]	2.1 to 20 nM
CCc1cc(N2CCN([C@H](C)c3cccc(OC)c3)C2=O)ccc1-c1cn[nH]c1 [Example 272, (R)-1-(3-ethyl-4-(1H-pyrazol-4-yl)phenyl)-3-(1-(3-methoxyphenyl)ethyl)imidazolidin-2-one]	2.1 to 20 nM
O=C1N(Cc2cccc(F)c2)CCN1c1ccc(-c2cnoc2)cc1 [Example 61, 1-(3-fluorobenzyl)-3-(4-(isoxazol-4-yl)phenyl)imidazolidin-2-one]	200 to 2000 nM
CCc1nc(N2CCN(Cc3cccc(OC)c3)C2=O)ccc1-c1cn[nH]c1 [Example 167, 1-(6-ethyl-5-(1H-pyrazol-4-yl)pyridin-2-yl)-3-(3-methoxy-benzyl) imidazolidin-2-one]	< 2 nM
COc1cccc(CN2C(=O)N(c3ccc(-c4cn[nH]c4)cc3)CC2CO)c1 (racemic) [Example 37, 1-(4-(1H-Pyrazol-4-yl)phenyl)-4-(hydroxymethyl)-3-(3-methoxybenzyl)imidazolidin-2-one]	< 2 nM
COc1cc(C(C)N2CCN(c3ccc(-c4cn[nH]c4)c(C)n3)C2=O)ccc1F (single isomer, unassigned) [Example 209, 1-(1-(4-fluoro-3-methoxyphenyl)ethyl)-3-(6-methyl-5-(1H-pyrazol-4-yl)pyridin-2-yl)imidazolidin-2-one]	2.1 to 20 nM
COc1cc(N2CC(=O)N(Cc3ccccc3F)C2=O)ccc1-c1cn[nH]c1 [Example 99, 3-(2-fluorobenzyl)-1-(3-methoxy-4-(1H-pyrazol-4-yl)phenyl)imidazolidine-2,4-dione]	20.1 to 200 nM
CCc1cc(N2CCN(Cc3cc(F)cc(OC)c3)C2=O)ccc1-c1cn[nH]c1 [Example 280, 1-(3-ethyl-4-(1H-pyrazol-4-yl)phenyl)-3-(3-fluoro-5-methoxybenzyl)imidazolidin-2-one]	2.1 to 20 nM

Results, then the compound that gave them:

IC50	SMILES
20.1 to 200 nM	COc1cccc(CN2CCN(c3cc(C)c(-c4cn[nH]c4)cn3)C2=O)c1 [Example 465, 1-(3-methoxybenzyl)-3-(4-methyl-5-(1H-pyrazol-4-yl)pyridin-2-yl)imidazolidin-2-one]
2.1 to 20 nM	COc1cccc(Cn2ccn(-c3ccc(-c4cn[nH]c4)cn3)c2=O)c1 [Example 344, 1-(5-(1H-pyrazol-4-yl)pyridin-2-yl)-3-(3-methoxybenzyl)-1H-imidazol-2(3H)-one]
2.1 to 20 nM	COc1nc(-n2ccn(Cc3cccc(F)c3F)c2=O)ccc1-c1cn[nH]c1 [Example 375, 1-(2,3-difluorobenzyl)-3-(6-methoxy-5-(1H-pyrazol-4-yl)pyridin-2-yl)-1H-imidazol-2(3H)-one]
20.1 to 200 nM	COc1nc(-n2ccn(Cc3ccc(F)cc3F)c2=O)ccc1-c1cn[nH]c1 [Example 414, 1-(2,4-difluorobenzyl)-3-(6-methoxy-5-(1H-pyrazol-4-yl)pyridin-2-yl)-1H-imidazol-2(3H)-one]
< 2 nM	COc1cccc(C(CO)n2ccn(-c3ccc(-c4cn[nH]c4)cc3)c2=O)c1 (single isomer, unassigned) [Example 324, 1-(4-(1H-Pyrazol-4-yl)phenyl)-3-(2-hydroxy-1-(3-methoxyphenyl)ethyl)-1H-imidazol-2(3H)-one]
2.1 to 20 nM	COc1cc(F)cc(CN2C(=O)N(c3ccc(-c4cn[nH]c4)cn3)CC2(C)C)c1 [Example 458, 1-(5-(1H-pyrazol-4-yl)pyridin-2-yl)-3-(3-fluoro-5-methoxybenzyl)-4,4-dimethylimidazolidin-2-one]
20.1 to 200 nM	O=c1n(Cc2cc(F)ccc2F)ccn1-c1ccc(-c2cn[nH]c2)cc1 [Example 408, 1-(4-(1H-pyrazol-4-yl)phenyl)-3-(2,5-difluorobenzyl)-1H-imidazol-2(3H)-one]
20.1 to 200 nM	COc1cc(CN2CCN(c3ccc(-c4cn[nH]c4)nc3)C2=O)ccc1F [Example 440, 1-(6-(1H-pyrazol-4-yl)pyridin-3-yl)-3-(4-fluoro-3-methoxybenzyl)imidazolidin-2-one]
2.1 to 20 nM	COc1nc(-n2ccn(Cc3cc(F)ccc3C)c2=O)ccc1-c1cn[nH]c1 [Example 382, 1-(5-fluoro-2-methylbenzyl)-3-(6-methoxy-5-(1H-pyrazol-4-yl)pyridin-2-yl)-1H-imidazol-2(3H)-one]
2.1 to 20 nM	CC1(C)CN(c2ccc(-c3cn[nH]c3)cn2)C(=O)N1Cc1cccc(OCC2CC2)c1 [Example 452, 1-(5-(1H-pyrazol-4-yl)pyridin-2-yl)-3-(3-(cyclopropylmethoxy)benzyl)-4,4-dimethylimidazolidin-2-one]
20.1 to 200 nM	COc1cc(Cn2ccn(-c3ccc(-c4cn[nH]c4)cn3)c2=O)ccc1F [Example 346, 1-(5-(1H-pyrazol-4-yl)pyridin-2-yl)-3-(4-fluoro-3-methoxybenzyl)-1H-imidazol-2(3H)-one]
< 2 nM	COc1cccc(CN2C(=O)N(c3ccc(-c4cn[nH]c4)cn3)CC2(C)C)c1 [Example 451, 1-(5-(1H-pyrazol-4-yl)pyridin-2-yl)-3-(3-methoxybenzyl)-4,4-dimethylimidazolidin-2-one]
20.1 to 200 nM	COc1cc(F)cc(C(C)n2ccn(-c3ccc(-c4cn[nH]c4)cn3)c2=O)c1 (single isomer, unassigned) [Example 394, 1-(5-(1H-pyrazol-4-yl)pyridin-2-yl)-3-(1-(3-fluoro-5-methoxyphenyl)ethyl)-1H-imidazol-2(3H)-one]
200 to 2000 nM	O=C1N(Cc2cccc(OCC3CC3)c2)CCN1c1ccc(-c2cn[nH]c2)nc1 [Example 441, 1-(6-(1H-pyrazol-4-yl)pyridin-3-yl)-3-(3-(cyclopropylmethoxy)benzyl)imidazolidin-2-one]
200 to 2000 nM	COc1cc(F)ccc1Cn1ccn(-c2ccc(-c3cn[nH]c3)cc2)c1=O [Example 412, 1-(4-(1H-pyrazol-4-yl)phenyl)-3-(4-fluoro-2-methoxybenzyl)-1H-imidazol-2(3H)-one]
20.1 to 200 nM	O=c1n(Cc2cccnc2)ccn1-c1ccc(-c2cn[nH]c2)cc1 [Example 410, 1-(4-(1H-pyrazol-4-yl)phenyl)-3-(pyridin-3-ylmethyl)-1H-imidazol-2(3H)-one]

Source: patent US10123993B2, “Cyclic ureas as inhibitors of rock” (BRISTOL-MYERS SQUIBB COMPANY, priority 2015, dated 2018)
